What was measured:
[1] = biological target: Protein farnesyltransferase (Homo sapiens, UniProt P49354+P49356); assay: Inhibitory activity against farnesyltransferase (FT) using SPA assay; format: protein-complex assay
NIH3T3 [2] = assay: (§1) Inhibition of H-ras processing in subconfluent H-Ras-transformed NIH3T3 cells; format: functional, Mus musculus; set-up: concentration or dose not given beside the values
NIH3T3 [3] = assay: as §1; format: functional, Mus musculus
NIH3T3 [4] = assay: as §1; format: functional, cell-based; details: Mus musculus
NIH3T3 [5] = assay: Inhibition of H-ras processing in subconfluent H-Ras-transformed NIH3T3 cells at 1 uM; format: functional; details: Mus musculus
[6] = AUC value in rat after IV administration at a dose of 10 mg/kg; format: ADME, organism-based; set-up: dose 10 mg/kg, route intravenous; details: plasma
[7] = AUC value in rat after oral administration at a dose of 10 mg/kg; format: ADME, organism-based; set-up: dose 10 mg/kg, route oral; details: plasma
[8] = Cmax value in rat after oral administration at a dose of 10 mg/kg; format: ADME, organism-based; set-up: dose 10 mg/kg, route oral; details: in vivo
[9] = Bioavailability in rat after oral administration at a dose of 10 mg/kg; format: ADME, organism-based; details: in vivo
[10] = Tmax value in rat after oral administration at a dose of 10 mg/kg; format: ADME, organism-based; set-up: dose 10 mg/kg, route oral; details: in vivo
[11] = Half life period in rat after IV administration at a dose of 10 mg/kg; format: ADME, organism-based; set-up: dose 10 mg/kg, route intravenous; details: in vivo
[12] = AUC value in dog after IV administration at a dose of 5 mg/kg; format: ADME, organism-based, Canis lupus familiaris; set-up: dose 5 mg/kg, route intravenous; details: plasma
[13] = AUC value in dog after oral administration at a dose of 5 mg/kg; format: ADME, organism-based, Canis lupus familiaris; set-up: dose 5 mg/kg, route oral; details: plasma
[14] = Cmax value in dog after oral administration at a dose of 5 mg/kg; format: ADME, organism-based, Canis lupus familiaris; set-up: dose 5 mg/kg, route oral; details: in vivo
[15] = Bioavailability in dog after oral administration at a dose of 5 mg/kg; format: ADME, organism-based, Canis lupus familiaris; details: in vivo
[16] = Tmax value in dog after oral administration at a dose of 5 mg/kg; format: ADME, organism-based, Canis lupus familiaris; set-up: dose 5 mg/kg, route oral; details: in vivo
[17] = Half life period in dog after IV administration at a dose of 5 mg/kg; format: ADME, organism-based, Canis lupus familiaris; set-up: dose 5 mg/kg, route intravenous; details: in vivo

Row | IC50 [1] [nM] | SMILES | Inhibition (NIH3T3 [2]) [%] | other results
1 | 0.59 | CSCC[C@H](NC(=O)c1ccc(/C(C#N)=C/c2cccnc2)cc1-c1ccccc1C)C(=O)O | 57 | 
2 | 2.9 | COc1ccncc1/C=C/c1ccc(C(=O)N[C@@H](CCSC)C(=O)O)c(-c2ccccc2C)c1 | 66 | 
3 | 0.58 | CSCC[C@H](NC(=O)c1ccc(/C=C/c2cnccc2C(O)c2ccccc2)cc1-c1ccccc1C)C(=O)O (stereo partly specified) |  | Inhibition (NIH3T3 [3]): 67%
4 | 0.2 | CSCC[C@H](NC(=O)c1ccc(/C=C/n2ccnc2)cc1-c1ccccc1C)C(=O)O |  | EC50 (NIH3T3 [4]): > 1000 nM
5 | 0.21 | CSCC[C@H](NC(=O)c1ccc(CCn2ccnc2)cc1-c1ccccc1C)C(=O)O |  | EC50 (NIH3T3 [4]): > 1000 nM
6 | 16 | CSCC[C@H](NC(=O)c1ccc(/C=C/c2cnc3ccccc3c2)cc1-c1ccccc1C)C(=O)O |  | EC50 (NIH3T3 [4]): > 1000 nM
7 | 57 | CSCC[C@H](NC(=O)c1ccc(/C=C/c2cnccn2)cc1-c1ccccc1C)C(=O)O |  | 
8 | 15 | CSCC[C@H](NC(=O)c1ccc(/C(=C\c2cccnc2)C(=O)OC(C)(C)C)cc1-c1ccccc1C)C(=O)O | 35 | 
9 | 0.66 | CSCC[C@H](NC(=O)c1ccc(/C=C/c2cnccc2C(O)(c2ccccc2)c2ccccc2)cc1-c1ccccc1C)C(=O)O |  | Inhibition (NIH3T3 [3]): 63%
10 | 140 | CSCC[C@H](NC(=O)c1ccc(C#Cc2cncnc2)cc1-c1ccccc1C)C(=O)O |  | 
11 | 0.29 | CSCC[C@H](NC(=O)c1ccc(/C=C/c2cnccc2O)cc1-c1ccccc1C)C(=O)O | 75 | 
12 | 25 | CSCC[C@H](NC(=O)c1ccc(/C=C/c2cncnc2)cc1-c1ccccc1C)C(=O)O |  | 
13 | 2.4 | CSCC[C@H](NC(=O)c1ccc(/C=C/c2cncs2)cc1-c1ccccc1C)C(=O)O |  | EC50 (NIH3T3 [4]): > 1000 nM
14 | 0.15 | CSCC[C@H](NC(=O)c1ccc(CCc2c[nH]cn2)cc1-c1ccccc1C)C(=O)O |  | EC50 (NIH3T3 [4]): > 1000 nM
15 | 26 | CSCC[C@H](NC(=O)c1ccc(/C=C/c2ccc(Oc3ccccc3)nc2)cc1-c1ccccc1C)C(=O)O |  | 
16 | 0.81 | CSCC[C@H](NC(=O)c1ccc(/C=C/c2cnccc2C2(O)CCCCC2)cc1-c1ccccc1C)C(=O)O | 74 | 
17 | 0.92 | CSCC[C@H](NC(=O)c1ccc(/C=C/c2cnccc2C(=O)c2ccccc2)cc1-c1ccccc1C)C(=O)O |  | EC50 (NIH3T3 [4]): 1000 nM

Row | IC50 [1] [nM] | SMILES | Inhibition (NIH3T3 [2]) [%] | other results
18 | 0.8 | CSCC[C@H](NC(=O)c1ccc(/C=C/c2cncc3ccccc23)cc1-c1ccccc1C)C(=O)O |  | inhibition at 1 µM (NIH3T3 [5]): 64%
19 | 3.6 | CSCC[C@H](NC(=O)c1ccc(/C(C#N)=C\c2cccnc2)cc1-c1ccccc1C)C(=O)O | 60 | 
20 | 0.3 | CSCC[C@H](NC(=O)c1ccc(/C=C/c2cnccc2OCc2cc(F)cc(F)c2)cc1-c1ccccc1C)C(=O)O |  | 
21 | 1.4 | CCCOc1ccncc1/C=C/c1ccc(C(=O)N[C@@H](CCSC)C(=O)O)c(-c2ccccc2C)c1 | 49 | 
22 | 0.91 | CSCC[C@H](NC(=O)c1ccc(/C(=C/c2cccnc2)C(=O)OC(C)(C)C)cc1-c1ccccc1C)C(=O)O | 80 | 
23 | 0.4 | CSCC[C@H](NC(=O)c1ccc(COc2cccnc2)cc1-c1ccccc1C)C(=O)O |  | 
24 | 0.37 | CSCC[C@H](NC(=O)c1ccc(/C=C/c2cnccc2C(O)[C@]23C[C@H]4C[C@H](C[C@H](C4)C2)C3)cc1-c1ccccc1C)C(=O)O (stereo partly specified) | 61 | 
25 | 4.7 | CSCC[C@H](NC(=O)c1ccc(/C=C/c2cncc(Cc3ccccc3)c2)cc1-c1ccccc1C)C(=O)O |  | EC50 (NIH3T3 [4]): > 1000 nM
26 | 0.61 | CSCC[C@H](NC(=O)c1ccc(/C=C/c2cccnc2)cc1-c1ccccc1C)C(=O)O |  | AUC [6]: 6660 ng·h/mL; AUC [7]: 870 ng·h/mL; Cmax [8]: 321 ng/mL; bioavailability [9]: 23%; Tmax [10]: 19.8 min; half-life [11]: 129 min; AUC [12]: 10500 ng·h/mL; AUC [13]: 2560 ng·h/mL; Cmax [14]: 2830 ng/mL; bioavailability [15]: 24.5%; Tmax [16]: 22.8 min; half-life [17]: 33 min; Inhibition (NIH3T3 [3]): 79%
27 | 0.63 | CSCC[C@H](NC(=O)c1ccc(/C=C/c2c[nH]cn2)cc1-c1ccccc1C)C(=O)O |  | EC50 (NIH3T3 [4]): > 1000 nM
28 | 2.7 | CSCC[C@H](NC(=O)c1ccc(C#Cc2cccnc2)cc1-c1ccccc1C)C(=O)O |  | EC50 (NIH3T3 [4]): 1000 nM
29 | 12 | CSCC[C@H](NC(=O)c1ccc(/C=C/c2cncc(-c3ccccc3)c2)cc1-c1ccccc1C)C(=O)O |  | 
30 | 0.54 | CSCC[C@H](NC(=O)c1ccc(/C=C/c2cnccc2C(O)C2CCCCC2)cc1-c1ccccc1C)C(=O)O (stereo partly specified) | 63 | 
31 | 2.1 | CSCC[C@H](NC(=O)c1ccc(CCc2cccnc2)cc1-c1ccccc1C)C(=O)O |  | 
32 | 0.29 | CSCC[C@H](NC(=O)c1ccc(/C=C/c2cnccc2Cl)cc1-c1ccccc1C)C(=O)O | 60 | 
33 | 0.12 | CSCC[C@H](NC(=O)c1ccc(/C=C/c2cnccc2C(=O)[C@]23C[C@H]4C[C@H](C[C@H](C4)C2)C3)cc1-c1ccccc1C)C(=O)O | 74 | 
34 |  | CSCC[C@H](NC(=O)c1ccc(NC[C@@H](N)CS)cc1-c1ccccc1)C(=O)O |  | EC50 (NIH3T3 [4]): 1000 nM

Source: ChEMBL document CHEMBL1132058, “Potent inhibitors of protein farnesyltransferase: heteroarenes as cysteine replacements” (Bioorg Med Chem Lett, 1999)
